Experimental data: US5061794A, “Cephalosporin derivatives, and antibacterial agents” (priority 1986, dated 1991)
≈ marks a conversion by molar mass, not a printed value. Read-outs that look alike come from different tables or passages of the source.

How the values were obtained:
[1] = system: Ps. aeruginosa AKR17; assay: in vitro antibacterial activity, agar plate dilution method (MIC); assay type: cell-based, Pseudomonas aeruginosa; conditions: Pseudomonas aeruginosa
Summary of the method: (§1)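 Overnight Mueller Hinton broth cultures were inoculated onto Mueller Hinton agar containing serial antibiotic concentrations at 10^6 CFU/ml. Plates were incubated at 37° C. for 16 hours, and MIC (μg/ml) was recorded.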

[2] = system: Ps. aeruginosa AK 109; assay: as above; assay type: cell-based, Pseudomonas aeruginosa; conditions: Pseudomonas aeruginosa, AK109, 16 h
Summary of the method: as §1

[3] = system: Ps. aeruginosa IF03445; assay: as above; assay type: cell-based, Pseudomonas aeruginosa; conditions: Pseudomonas aeruginosa, IF03445, 16 h, read-out: Minimum Inhibitory Concentration (MIC), Ps. aeruginosa IF03445; 10^6 CFU/ml
Summary of the method: as §1

[4] = system: Ps. cepacia 23; assay: as above; assay type: cell-based, Pseudomonas cepacia; conditions: read-out: Minimum Inhibitory Concentration (MIC)
Summary of the method: as §1

[5] = system: A. calcoaceticus No. 4; assay: as above; assay type: cell-based, Acinetobacter calcoaceticus; conditions: Acinetobacter calcoaceticus, NO.4, 16 h, 10^6 CFU/ml
Summary of the method: as §1

[6] = system: K. pneumoniae PCI-602; assay: as above; assay type: cell-based; conditions: Klebsiella pneumoniae, PCI602, 16 h, read-out: Minimum Inhibitory Concentration (MIC), K. pneumoniae PCI-602; 10^6 CFU/ml
Summary of the method: as §1

[7] = system: S. marcescens No. 16-2; assay: as above; assay type: cell-based; conditions: Serratia marcescens, NO.162, 16 h
Summary of the method: as §1

[8] = system: K. oxytoca GN10650; assay: as above; assay type: cell-based; conditions: Klebsiella oxytoca, GN10650, 16 h, read-out: Minimum Inhibitory Concentration (MIC), *K. oxytoca GN10650, lactamase-producing strain; 10^6 CFU/ml
Summary of the method: as §1

[9] = system: P. vulgaris No. 33; assay: as above; assay type: cell-based; conditions: Proteus vulgaris, NO.33, 16 h, read-out: Minimum Inhibitory Concentration (MIC), *P. vulgaris No. 33, lactamase-producing strain; 10^6 CFU/ml
Summary of the method: as §1

[10] = system: E. cloacae Nek 39; assay: as above; assay type: cell-based; conditions: Enterobacter cloacae, NEK39, 16 h, read-out: Minimum Inhibitory Concentration (MIC), *E. cloacae Nek 39, lactamase-producing strain; 10^6 CFU/ml
Summary of the method: as §1

[11] = system: K. pneumoniae No. 42; assay: as above; assay type: cell-based; conditions: Klebsiella pneumoniae, NO.42, 16 h, read-out: Minimum Inhibitory Concentration (MIC), *K. pneumoniae No. 42, lactamase-producing strain; 10^6 CFU/ml
Summary of the method: as §1

[12] = system: M. morganii GN5407; assay: as above; assay type: cell-based; conditions: Morganella morganii, GN5407, 16 h, read-out: Minimum Inhibitory Concentration (MIC), *M. morganii GN5407, lactamase-producing strain; 10^6 CFU/ml
Summary of the method: as §1

[13] = system: S. aureus 209P NIHJ-JC1; assay: as above; assay type: cell-based; conditions: Staphylococcus aureus, 16 h
Summary of the method: as §1

[14] = system: E. coli GN5482; assay: as above; assay type: cell-based; conditions: Escherichia coli, GN5482, 16 h
Summary of the method: as §1

[15] = system: E. cloacae 963; assay: as above; assay type: cell-based; conditions: 10^6 CFU/ml
Summary of the method: as §1

[16] = system: S. marcescens IAM 1184; assay: as above; assay type: cell-based; conditions: Serratia marcescens, IAM1184, 16 h, read-out: Minimum Inhibitory Concentration (MIC)
Summary of the method: as §1

[17] = system: P. vulgaris HX-19; assay: as above; assay type: cell-based; conditions: Proteus vulgaris, HX19, 16 h, read-out: Minimum Inhibitory Concentration (MIC)
Summary of the method: as §1

[18] = system: E. coli NIHJ JC2; assay: as above; assay type: cell-based; conditions: Escherichia coli, NIHJJC2, 16 h, read-out: Minimum Inhibitory Concentration (MIC), E. coli NIHJ JC2, 10^6 CFU/ml, 37° C.
Summary of the method: as §1

[19] = system: E. coli CSH2 (RK1); assay: microbe, parasite or virus in culture; assay type: cell-based; conditions: Escherichia coli, 16 h, read-out: Minimum Inhibitory Concentration (MIC), *E. coli CSH2 (RK1), lactamase-producing strain; 10^6 CFU/ml
Summary of the method: as §1

[20] = system: E. coli CSH(RE45); assay: microbe, parasite or virus in culture; assay type: cell-based; conditions: Escherichia coli, 16 h, read-out: Minimum Inhibitory Concentration (MIC), *E. coli CSH(RE45), lactamase-producing strain; 10^6 CFU/ml
Summary of the method: as §1

[21] = AKR17, 16 h, read-out: Minimum Inhibitory Concentration (MIC)
[22] = read-out: Minimum Inhibitory Concentration (MIC), Ps. aeruginosa AK 109, 10^6 CFU/ml
[23] = Burkholderia cepacia, 16 h, Ps. cepacia 23, 10^6 CFU/ml
[24] = A. calcoaceticus No. 4, read-out: Minimum Inhibitory Concentration (MIC)
[25] = read-out: Minimum Inhibitory Concentration (MIC), *S. marcescens No. 16-2, lactamase-producing strain, 10^6 CFU/ml
[26] = read-out: Minimum Inhibitory Concentration (MIC)
[27] = Enterobacter cloacae, 16 h, E. cloacae 963, read-out: Minimum Inhibitory Concentration (MIC)
[28] = S. marcescens IAM 1184, 10^6 CFU/ml
[29] = read-out: Minimum Inhibitory Concentration (MIC), A. calcoaceticus No. 4
[30] = read-out: Minimum Inhibitory Concentration (MIC), S. aureus 209P NIHJ-JC1, 10^6 CFU/ml, 37° C., 16 hours
[31] = Enterobacter cloacae, 963, 16 h, read-out: Minimum Inhibitory Concentration (MIC), E. cloacae 963
[32] = read-out: Minimum Inhibitory Concentration (MIC), *E. coli GN5482, lactamase-producing strain, 10^6 CFU/ml
[33] = 16 h, Ps. aeruginosa AKR17, 10^6 CFU/ml, read-out: Minimum Inhibitory Concentration (MIC)

Structure (SMILES)	MIC [1, 21]	MIC [2, 22]	MIC [3]	MIC [4, 23]	MIC [6]	MIC [7, 25]	MIC [8]	MIC [9]	MIC [10]	MIC [11]	MIC [12]	MIC [14, 26]	MIC [16, 28]	MIC ([17]; P. vulgaris HX-19, 10^6 CFU/ml)	MIC [18]	MIC [19]	MIC [20]	MIC [5, 29]	MIC [13, 30]	MIC [15, 31]	other results
Nc1nc(C(=NOCC(=O)O)C(=O)NC2C(=O)N3C(C(=O)O)=C(CSc4nc(-c5ccc(O)c(O)c5)cs4)CSC23)cs1 (stereo not drawn) [Ex. 43, disodium 7β-[2-(2-aminothiazol-4-yl)-2-carboxylatemethoxyimincacetamido]-3-[4-(3,4-dihydroxyphenyl)thiazol-2-yl]thiomethvl-3-cephem-4-carboxylate]	12.5 µg/mL	0.78 µg/mL	0.78 µg/mL	< 0.006 µg/mL	< 0.006 µg/mL	1.56 µg/mL	0.39 µg/mL	0.05 µg/mL	0.2 µg/mL	0.1 µg/mL	0.05 µg/mL	0.39 µg/mL	0.05 µg/mL	< 0.006 µg/mL	0.2 µg/mL	0.025 µg/mL	0.025 µg/mL				MIC [5, 24]: 0.2 µg/mL; MIC [13, 26]: 12.5 µg/mL; MIC [15, 27]: 0.1 µg/mL
Nc1nc(C(=NOC2(C(=O)O)CC2)C(=O)NC2C(=O)N3C(C(=O)O)=C(CSc4nc(-c5ccc(O)c(O)c5)cs4)CSC23)cs1 (stereo not drawn) [Ex. 45, disodium 7β-[2-(2-aminothiazol-4-yl)-2-(1-carboxvlate-1-cyclopropoxyimino)acetamido]-3-[4-(3,4-dihvdroxvphenyl)thiazol-2-yl]thiomethyl-3-cephem-4-carboxylate]		0.78 µg/mL	0.78 µg/mL	< 0.006 µg/mL	< 0.006 µg/mL		0.1 µg/mL	0.025 µg/mL	0.05 µg/mL	0.1 µg/mL	0.05 µg/mL	0.39 µg/mL	0.05 µg/mL	< 0.006 µg/mL	0.2 µg/mL	0.025 µg/mL	0.05 µg/mL	0.1 µg/mL	6.25 µg/mL	0.05 µg/mL	MIC ([1]; AKR17, 16 h, read-out: Minimum Inhibitory Concentration (MIC), Ps. aeruginosa AKR17, 10^6 CFU/ml): 6.25 µg/mL; MIC [7, 26]: 0.39 µg/mL
CCON=C(C(=O)N[C@@H]1C(=O)N2C(C(=O)[O-])=C(CSc3nc(-c4ccc(OC(C)=O)c(OC(C)=O)c4)cs3)CS[C@H]12)c1csc(N)n1.[Na+] [Ex. 49, sodium 3-[4-(3,4-diacetoxyphenyl)-thiazol-2-yl]thiomethyl-7β-[2-(2-aminothiazol-4-yl)-2-ethoxyiminoacetamido]-3-cephem-4-carboxylate]	100 µg/mL	0.78 µg/mL	0.78 µg/mL		< 0.006 µg/mL		6.25 µg/mL	0.05 µg/mL	0.78 µg/mL	0.05 µg/mL	0.1 µg/mL				0.39 µg/mL	0.025 µg/mL	0.05 µg/mL	0.39 µg/mL	1.56 µg/mL	0.1 µg/mL	MIC ([4]; Burkholderia cepacia, 23, 16 h): 0.05 µg/mL; MIC [7, 26]: 3.12 µg/mL; MIC [14, 32]: 1.56 µg/mL; MIC [16]: 0.1 µg/mL; MIC [17]: 0.0125 µg/mL
CON=C(C(=O)NC1C(=O)N2C(C(=O)O)=C(CSc3nc(C(=O)O)c(-c4ccc(O)c(O)c4)s3)CSC12)c1csc(N)n1 (centres unmarked) [Ex. 52]			6.25 µg/mL (≈ 9.4 µM)	0.025 µg/mL (≈ 0.0376 µM)	< 0.006 µg/mL		6.25 µg/mL (≈ 9.4 µM)	0.1 µg/mL (≈ 0.15 µM)	0.78 µg/mL (≈ 1.17 µM)	0.1 µg/mL (≈ 0.15 µM)	0.1 µg/mL (≈ 0.15 µM)	3.12 µg/mL (≈ 4.69 µM)	0.1 µg/mL (≈ 0.15 µM)		0.39 µg/mL (≈ 0.587 µM)	0.0125 µg/mL (≈ 0.0188 µM)	0.05 µg/mL (≈ 0.0752 µM)	0.39 µg/mL (≈ 0.587 µM)			MIC [1, 33]: > 100 µg/mL; MIC [2, 26]: 12.5 µg/mL (≈ 18.8 µM); MIC [7, 26]: 12.5 µg/mL (≈ 18.8 µM); MIC [13, 26]: 12.5 µg/mL (≈ 18.8 µM); MIC [15, 27]: 0.1 µg/mL (≈ 0.15 µM); MIC [17]: 0.0125 µg/mL (≈ 0.0188 µM)
C#CCON=C(C(=O)NC1C(=O)N2C(C(=O)O)=C(CSc3nc(C(=O)O)c(-c4ccc(O)c(O)c4)s3)CSC12)c1csc(N)n1 (centres unmarked) [Ex. 56, disodium 78-[2-(2-aminothiazol-4-yl)-2-proparqyloxyiminoacetamido]-3-[4-carboxylate-5-(3,4-dihydroxyphenyl)thiazol-2-yl]thiomethyl-3-cephem-4-carboxylate]		6.25 µg/mL	3.12 µg/mL	< 0.006 µg/mL	< 0.006 µg/mL	6.25 µg/mL	12.5 µg/mL	0.05 µg/mL	0.78 µg/mL	0.1 µg/mL	0.05 µg/mL	3.12 µg/mL	0.05 µg/mL	< 0.006 µg/mL	0.78 µg/mL	0.0125 µg/mL	0.025 µg/mL		6.25 µg/mL		MIC [1, 33]: 100 µg/mL; MIC [5, 24]: 0.2 µg/mL; MIC [15, 27]: 0.2 µg/mL
CON=C(C(=O)NC1C(=O)N2C(C(=O)O)=C(CSc3ncc(-c4ccc(O)c(O)c4)o3)CSC12)c1csc(N)n1 (centres unmarked) [Ex. 62, sodium 75-[2-(2-aminothiazol-4-yl)-2-methoxyiminoacetamido]-3-[5-(3,4-dihydroxyphenyl)-oxazol-2-yl]thiomethyl-3-cephem-4-carboxylate]			1.56 µg/mL	< 0.006 µg/mL	< 0.006 µg/mL	6.25 µg/mL	3.12 µg/mL	0.025 µg/mL	0.78 µg/mL	0.025 µg/mL	0.1 µg/mL		0.025 µg/mL	< 0.006 µg/mL	0.2 µg/mL	0.025 µg/mL	0.05 µg/mL		1.56 µg/mL	0.05 µg/mL	MIC [1, 33]: > 100 µg/mL; MIC [2, 26]: 3.12 µg/mL; MIC [5, 24]: 0.2 µg/mL; MIC [14, 32]: 1.56 µg/mL
CCON=C(C(=O)N[C@@H]1C(=O)N2C(C(=O)[O-])=C(CSc3ncc(-c4ccc(O)c(O)c4)o3)CS[C@H]12)c1csc(N)n1.[Na+] [Ex. 63, sodium 7β-[2-(2-aminothiazol-4-yl)-2-ethoxyiminoacetamido]-3-[5-(3,4-dihydroxyphenyl)-oxazol-2-yl]thiomethyl-3-cephem-4-carboxylate]	100 µg/mL	1.56 µg/mL	1.56 µg/mL		< 0.006 µg/mL	6.25 µg/mL	3.12 µg/mL	0.025 µg/mL	0.39 µg/mL	0.1 µg/mL	0.1 µg/mL				0.39 µg/mL	0.0125 µg/mL	0.1 µg/mL	0.78 µg/mL		0.2 µg/mL	MIC ([4]; Burkholderia cepacia, 23, 16 h): 0.1 µg/mL; MIC [13, 26]: 3.12 µg/mL; MIC [14, 32]: 1.56 µg/mL; MIC [16]: 0.1 µg/mL; MIC [17]: 0.0125 µg/mL
